Assay results taken from US11525835B2, “Compounds and methods for use in detecting gabapentin” (Ark Diagnostics, Inc., priority 2007, dated 2022).

System: Rabbit polyclonal antibody #10930
Experiment: Specificity of the immunoassay (cross-reactivity of antibody with other antiepileptic drugs)
Type: binding
Settings: assayed in duplicate, Cobas Mira
Text: Antibodies obtained using any of the disclosed techniques are screened or purified not only for their ability to react with gabapentin, but for a low cross-reactivity with potential interfering substances. “Cross-reactivity” may be determined in a quantitative immunoassay by establishing a standard curve using known dilutions of the target analyte, gabapentin. The standard curve is then used to calculate the apparent concentration of the interfering substance present in various known amounts in samples assayed under similar condition. The cross-reactivity is the apparent concentration divided by the actual concentration multiplied by 100. An exemplary immunoassay for determining cross-reactivity is a homogeneous enzyme immunoassay using a wild type G6PDH as described in U.S. Pat. No. 3,817,837 or mutant G6PDH engineered to contain a cysteine per subunit as described in U.S. Pat. Nos. 6,033,890, 6,090,567 and 6,455,288. Furthermore, the cross-reactivity can be determined in the same type of immunoassay in which the antibody will ultimately be used.
The gabapentin antibodies and enzyme conjugates may be advantageously used in a homogeneous assay format to detect gabapentin in samples. An analyzer (instrument) useful to set up the assay is Roche Cobas Mira (Roche Diagnostics). Gabapentin containing sample is incubated with antibody reagent followed by the addition of the enzyme conjugate reagent. The enzyme conjugate activity decreases upon binding to the antibody. The enzyme conjugate, which is not bound to the antibody, catalyzes the oxidation of glucose 6-phosphate (G6P). The oxidation of G6P is coupled with the reduction of NAD^+ to NADH, which can be measured at 340 nm. The change in the absorbance at 340 nm can be measured spectrophotometrically. The gabapentin concentration in a specimen can be measured in terms of G6PDH activity. The increase in the rate at 340 nm is due to the formation of NADH and is proportional to the enzyme conjugate activity. An assay curve is generated (FIG. 6) using gabapentin spiked into negative calibrator matrix. The assay rate increases with increasing the concentration of free drug in the sample.
The specificity of the immunoassay was evaluated by adding potentially crossreactant drugs to human serum and determining the increase in the apparent concentration as a result of the presence of crossreactant. Separate stock solutions of gabapentin were prepared by dissolving the drug in methanol to give a stock solution of 1000 μg/mL. […] Each sample was assayed in duplicate. Testing was performed on the Cobas Mira Analyzer®. The percentage concentration above 5 μg/mL of gabapentin was calculated for each crossreactant.

[1] = AED at 100 μg/mL in human serum

SMILES	Percent Increase in Apparent Gabapentin [1] [%]	Percent Increase in Apparent Gabapentin (AED at 50 μg/mL in human serum) [%]
CCCC(CCC)C(=O)O [Valproic Acid]	0	
NS(=O)(=O)Cc1noc2ccccc12 [Zonisamide]		0
NC(=O)N1c2ccccc2C=Cc2ccccc21 [Carbamazepine]	0	
Nc1nnc(-c2cccc(Cl)c2Cl)c(N)n1 [Lamotrigine]	0	
CC[C@@H](C(N)=O)N1CCCC1=O [Levetiracetam]	0	
